From US7723320B2, “Use of estrogen compounds to increase libido in women” (Pantarhei Bioscience B.V., priority 2001, dated 2010)

Experiments:
[1] = molecular target: T1, human sex Hormone Binding Globulin (SHBG) (Homo sapiens, UniProt P04278); assay: Competitive steroid-binding assay, SHBG; details: [3H]DHT or [3H]estradiol as labeled ligands
T1 construct: made in house; host or cells: transgenic mouse (purified from serum)
T1 sequence (P04278 30-402): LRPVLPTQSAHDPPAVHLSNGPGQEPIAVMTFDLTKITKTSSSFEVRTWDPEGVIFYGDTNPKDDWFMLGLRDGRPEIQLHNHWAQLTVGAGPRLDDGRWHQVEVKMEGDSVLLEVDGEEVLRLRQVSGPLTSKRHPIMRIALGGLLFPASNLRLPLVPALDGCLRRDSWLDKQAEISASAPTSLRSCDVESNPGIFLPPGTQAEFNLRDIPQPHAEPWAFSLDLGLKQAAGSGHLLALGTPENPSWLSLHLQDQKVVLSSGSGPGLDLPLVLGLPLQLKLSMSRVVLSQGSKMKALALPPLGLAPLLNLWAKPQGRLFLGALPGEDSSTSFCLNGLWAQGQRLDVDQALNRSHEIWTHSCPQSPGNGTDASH
Procedure: Human SHBG was treated for 30 min at room temperature with a dextran-coated charcoal (DCC) suspension in phosphate buffered saline (PBS) to remove any steroid ligand. After centrifugation (2,000×g for 10 min) to sediment the DCC, the supernatant containing the human SHBG was diluted in PBS to a concentration of 1 nM based on its steroid binding capacity.
The average amounts of [^3H]labeled ligands bound to SHBG at each concentration of competitor (B) were expressed as a percentage of the average amounts of [^3H]labeled ligands bound to SHBG in the absence of competitor (B0), and were plotted against the concentration of competitor in each assay tube.

[2] = tested on: ovariectomized adult rats; assay: Vaginal cornification bioassay in ovariectomized rats; assay type: in vivo, rat; details: 0.05 mg/kg/day
Text: Uterine weight increase in the rat is more commonly used as a measure of estrogenicity. […] In the early 1920s it was discovered that follicular fluid from the pig ovary contained a factor(s) that caused cornification/keratinization of the vaginal epithelium in the rat (Allen and Doisy, 1923, JAMA, 81,819-821; Allen and Doisy, 1924, Am. J. Physiol., 69, 577-588). The so-called vaginal cornification response in rats subsequently provided a bioassay for testing estrogenicity. Vaginal epithelial cornification/keratinization in ovariectomized rats can be produced only by compounds considered to be true estrogens (Jones et al, 1973, Fert. Steril. 24, 284-291). […] Adult intact female CD rats were ovariectomized to induce estrogen deficiency. […] Castrate vaginal smears are indicative that complete ovanectomy was achieved. Treatment commenced following completion of the 7 days of smearing (day 0=first day of dosing). Animals were dosed, once daily for 7 consecutive days. Daily vaginal lavages continued to be obtained for 7 days after dosing was initiated in order to detect vaginal cornification, as an indication of an estrogenic response. A drop of vaginal washings was placed on a glass slide and examined by light microscopy to detect the presence or absence of cornified epithelial cells. Vaginal lavages were obtained prior to dosing on days 0-6 and prior to necropsy on day 7. The vaginal cornification bioassay was performed in order to determine the estrogenic profile of E4 when given subcutaneously (sc) to ovariectomized adult rats. E2 was used as a positive control. […] The vaginal cornification bioassay was performed in order to determine the estrogenic profile of E4 when given orally (po) to ovariectomized adult rats. EE was used as a positive control. […] A vaginal estrogenic response occurred in all rats (8/8) given 50 μg/kg/day EE po by day 7 (Table 2).

SMILES: C[C@]12CCC(=O)C[C@@H]1CC[C@@H]1[C@@H]2CC[C@]2(C)[C@@H](O)CC[C@@H]12 [5α-dihydrotestosterone]
- relative binding affinity for human SHBG [1]: in this order, show an increased relative binding affinity

SMILES: C[C@]12CC[C@@H]3c4ccc(O)cc4CC[C@H]3[C@@H]1CC[C@@H]2O [E2, 17β-estradiol, reference compound]
- Number of Rats Exhibiting Estrogenic Response/Number of Rats Treated ([2]; sc, Day 0): 0/8
- Number of Rats Exhibiting Estrogenic Response/Number of Rats Treated ([2]; sc, Day 1): 0/8
- Number of Rats Exhibiting Estrogenic Response/Number of Rats Treated ([2]; sc, Day 2): 8/8
- Number of Rats Exhibiting Estrogenic Response/Number of Rats Treated ([2]; sc, Day 3): 8/8
- Number of Rats Exhibiting Estrogenic Response/Number of Rats Treated ([2]; sc, Day 4): 8/8
- Number of Rats Exhibiting Estrogenic Response/Number of Rats Treated ([2]; sc, Day 5): 8/8
- Number of Rats Exhibiting Estrogenic Response/Number of Rats Treated ([2]; sc, Day 6): 8/8
- Number of Rats Exhibiting Estrogenic Response/Number of Rats Treated ([2]; sc, Day 7): 8/8

SMILES: C#C[C@]1(O)CC[C@H]2[C@@H]3CCc4cc(O)ccc4[C@H]3CC[C@@]21C [EE, 17α-ethinylestradiol, reference compound]
- Number of Rats Exhibiting Estrogenic Response/Number of Rats Treated ([2]; po, Day 0): 0/8
- Number of Rats Exhibiting Estrogenic Response/Number of Rats Treated ([2]; po, Day 1): 1/8
- Number of Rats Exhibiting Estrogenic Response/Number of Rats Treated ([2]; po, Day 2): 3/8
- Number of Rats Exhibiting Estrogenic Response/Number of Rats Treated ([2]; po, Day 3): 8/8
- Number of Rats Exhibiting Estrogenic Response/Number of Rats Treated ([2]; po, Day 4): 8/8
- Number of Rats Exhibiting Estrogenic Response/Number of Rats Treated ([2]; po, Day 5): 8/8
- Number of Rats Exhibiting Estrogenic Response/Number of Rats Treated ([2]; po, Day 6): 8/8
- Number of Rats Exhibiting Estrogenic Response/Number of Rats Treated ([2]; po, Day 7): 8/8

SMILES: C[C@]12CC[C@H]3[C@@H](CCC4=CC(=O)CC[C@@]43C)[C@@H]1CC[C@@H]2O [testosterone]
- relative binding affinity for human SHBG [1]: in this order, show an increased relative binding affinity
